In patent US11584714B2 (priority 2018, dated 2023):
Structures can show the parent of a compound that is named as a salt. Where two headings read alike, the source gives them in different places.

How the values were obtained:
Assay type in all cases: biochemical
mMASP-2 = mMASP-2 (Mus musculus (Mouse), UniProt Q91WP0); experiment: Enzymatic inhibition of mMASP-2; details: read-out: mMASP-2 Ki
MASP-2 (CCP1-CCP2-SP) = MASP-2 (CCP1-CCP2-SP) (Homo sapiens (Human), UniProt O00187); experiment: biochemical
Sequence of MASP-2 (CCP1-CCP2-SP) (O00187 445-686): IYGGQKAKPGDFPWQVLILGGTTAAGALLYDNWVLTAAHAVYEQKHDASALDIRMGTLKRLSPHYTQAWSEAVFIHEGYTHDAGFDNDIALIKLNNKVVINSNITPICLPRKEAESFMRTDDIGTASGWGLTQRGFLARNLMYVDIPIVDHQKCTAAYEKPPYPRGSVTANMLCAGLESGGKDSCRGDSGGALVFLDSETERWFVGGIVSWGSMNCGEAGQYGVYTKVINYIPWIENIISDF

human α-thrombin = human α-thrombin (Homo sapiens (Human), UniProt P00734); experiment: Enzymatic assay for thrombin (Boc-VPR-AMC substrate)
[1] = MASP-2 inhibition versus thrombin
[2] = selectivity for MASP-2 inhibition versus thrombin

Sequence of mMASP-2 (Q91WP0 20-685): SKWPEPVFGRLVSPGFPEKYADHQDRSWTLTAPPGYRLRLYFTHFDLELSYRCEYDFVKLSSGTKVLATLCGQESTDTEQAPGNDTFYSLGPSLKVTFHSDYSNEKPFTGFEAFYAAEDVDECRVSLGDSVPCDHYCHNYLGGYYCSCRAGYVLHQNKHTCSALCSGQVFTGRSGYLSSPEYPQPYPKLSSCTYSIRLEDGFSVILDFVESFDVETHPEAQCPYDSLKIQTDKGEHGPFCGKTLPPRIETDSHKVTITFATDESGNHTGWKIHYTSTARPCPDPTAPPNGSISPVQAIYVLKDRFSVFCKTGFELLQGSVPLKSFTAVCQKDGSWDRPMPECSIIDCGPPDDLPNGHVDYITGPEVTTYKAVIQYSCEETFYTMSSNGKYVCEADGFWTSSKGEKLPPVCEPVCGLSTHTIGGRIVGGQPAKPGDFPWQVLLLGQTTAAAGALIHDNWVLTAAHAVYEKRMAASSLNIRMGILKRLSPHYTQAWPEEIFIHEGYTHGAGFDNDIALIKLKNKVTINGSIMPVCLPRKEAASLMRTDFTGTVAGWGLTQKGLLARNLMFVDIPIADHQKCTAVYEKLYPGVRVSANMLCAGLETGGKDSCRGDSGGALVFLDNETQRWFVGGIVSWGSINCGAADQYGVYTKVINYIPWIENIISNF

Row | Compound | MASP-2 vs. thrombin selectivity (MASP-2 (CCP1-CCP2-SP); [1]) | Ki (MASP-2 (CCP1-CCP2-SP); read-out: MASP-2 Ki) | Ki (human α-thrombin; read-out: Thrombin Ki) | Ki (MASP-2 (CCP1-CCP2-SP)) | other results
1 | C[C@H](NC(=O)[C@@H]1C[C@@H](c2ccccc2)CCN1)C(=O)NCc1ccc(C(=N)N)cc1 [compound 1486, (2S,4S)—N—((S)-1-((4-carbamimidoylbenzyl)amino)-1-oxopropan-2-yl)-4-phenylpiperidine-2-carboxamide Dihydrochloride] | – | – | – | – | Ki (mMASP-2): < 500 nM
2 | C[C@H](NC(=O)[C@H]1C[C@@H](c2ccccc2)CCN1)C(=O)NCc1ccc(C(=N)N)cc1 [compound 1065] | – | – | – | – | Ki (mMASP-2): < 500 nM
3 | COc1cc(CC[C@@H](N)C(=O)N[C@@H](C)C(=O)NCc2ccc(C(=N)N)cc2)cc(OC)c1 [compound 1112] | ** (5.0 to 25-fold) | < 500 nM | < 0.5 µM | – | –
4 | COc1ccc(CC[C@@H](N)C(=O)N[C@@H](C)C(=O)NCc2ccc(C(=N)N)cc2)cc1 [compound 1076] | ** (5.0 to 25-fold) | < 500 nM | < 0.5 µM | – | –
5 | COc1ccc(CC[C@@H](N)C(=O)N[C@@H](C)C(=O)NCc2ccc(C(=N)N)cc2)c(OC)c1 [compound 1111] | * (1.0 to 5.0-fold) | < 500 nM | < 0.5 µM | – | –
6 | C[C@H](NC(=O)[C@H](N)CCc1cc(F)ccc1F)C(=O)NCc1ccc(C(=N)N)cc1 [compound 1086] | ** (5.0 to 25-fold) | < 500 nM | < 0.5 µM | – | –
7 | N=C(N)c1ccc2[nH]c(-c3c[nH]cn3)nc2c1 [compound 2000, 2-(1H-imidazol-4-yl)-1H-benzo[d]imidazole-5-carboximidamide dihydrochloride] | – | – | – | > 25000 nM | MASP-2 versus thrombin selectivity (MASP-2 (CCP1-CCP2-SP); +Zn): ++ (+Zn) (5.0 to 25-fold); Ki (MASP-2 (CCP1-CCP2-SP); +Zn, read-out: MASP-2 Ki): < 500 nM; Ki (human α-thrombin; +Zn, read-out: Thrombin Ki): < 10 µM; Ki (human α-thrombin; Thrombin Ki (μM), +EDTA): > 25 µM
8 | Cc1cc(N)ncc1CNC(=O)[C@H](C)NC(=O)[C@H](N)CCc1ccccc1 [compound 1243, (R)-2-Amino-N—((S)-1-(((6-amino-4-methylpyridin-3-yl)methyl)amino)-1-oxopropan-2-yl)-4-phenylbutanamide] | – | – | > 25 µM | 10000 to 25000 nM | –
9 | C[C@H](NC(=O)[C@H](N)CCc1ccc(F)cc1F)C(=O)NCc1ccc(C(=N)N)cc1 [compound 1084] | ** (5.0 to 25-fold) | < 500 nM | < 0.5 µM | – | –
10 | COCc1cccc(-c2nc3cc(C(=N)N)ccc3[nH]2)n1 [compound 2011, 2-(6-(methoxymethyl)pyridin-2-yl)-JH-benzo[d]imidazole-5-carboximidamide dihydrochloride] | – | – | – | > 25000 nM | MASP-2 versus thrombin selectivity (MASP-2 (CCP1-CCP2-SP); +Zn): ++ (+Zn) (5.0 to 25-fold); Ki (MASP-2 (CCP1-CCP2-SP); +Zn, read-out: MASP-2 Ki): < 500 nM; Ki (human α-thrombin; +Zn, read-out: Thrombin Ki): < 2.5 µM; Ki (human α-thrombin; Thrombin Ki (μM), +EDTA): > 25 µM
11 | CCOc1ccnc(-c2nc3cc(C(=N)N)ccc3[nH]2)c1 [compound 2012, 2-(4-ethoxypyridin-2-yl)-1H-benzo[d]imidazole-5-carboximidamide dihydrochloride] | – | – | – | > 25000 nM | MASP-2 versus thrombin selectivity (MASP-2 (CCP1-CCP2-SP); +Zn): + (+Zn) (1.0 to 5.0-fold); Ki (MASP-2 (CCP1-CCP2-SP); +Zn, read-out: MASP-2 Ki): < 50 nM; Ki (human α-thrombin; +Zn, read-out: Thrombin Ki): < 0.5 µM; Ki (human α-thrombin; Thrombin Ki (μM), +EDTA): > 25 µM
12 | N=C(N)c1ccc2[nH]c(Cc3ccccn3)nc2c1 [compound 2002, 2-(Pyridin-2-ylmethyl)-1H-benzo[d]imidazole-5-carboximidamide Dihydrochloride] | – | – | – | > 25000 nM | Ki (MASP-2 (CCP1-CCP2-SP); +Zn, read-out: MASP-2 Ki): < 2500 nM; Ki (human α-thrombin; +Zn, read-out: Thrombin Ki): < 25 µM; Ki (human α-thrombin; Thrombin Ki (μM), +EDTA): > 25 µM
13 | C[C@H](NC(=O)[C@H](N)CCc1cc(F)cc(F)c1)C(=O)NCc1ccc(C(=N)N)cc1 [compound 1087] | ** (5.0 to 25-fold) | < 500 nM | < 0.5 µM | – | –
14 | C[C@H](NC(=O)[C@H](N)Cc1ccc2ccccc2c1)C(=O)NCc1ccc(C(=N)N)cc1 [compound 1093] | −− (less than 1.0-fold) | < 500 nM | < 0.5 µM | – | –
15 | Cc1cc(CNC(=O)[C@H](C)NC(=O)[C@H](N)CCc2ccccc2)cnc1N [compound 1244, (R)-2-Amino-N—((S)-1-(((6-amino-5-methylpyridin-3-yl)methyl)amino)-1-oxopropan-2-yl)-4-phenylbutanamide] | – | – | > 25 µM | 500 to 2500 nM | MASP-2 vs. thrombin selectivity (MASP-2 (CCP1-CCP2-SP); [2]): ** (≥5.0 to <25-fold)
16 | Cc1cccc(-c2nc3cc(C(=N)N)ccc3[nH]2)n1 [compound 2003, 2-(6-methylpyridin-2-yl)-1H-benzo[d]imidazole-5-carboximidamide] | – | – | – | > 25000 nM | MASP-2 versus thrombin selectivity (MASP-2 (CCP1-CCP2-SP); +Zn): +++ (+Zn) (25 to 100-fold); Ki (MASP-2 (CCP1-CCP2-SP); +Zn, read-out: MASP-2 Ki): < 50 nM; Ki (human α-thrombin; +Zn, read-out: Thrombin Ki): < 2.5 µM; Ki (human α-thrombin; Thrombin Ki (μM), +EDTA): > 25 µM
17 | Cc1cccc([C@H]2CN[C@@H](C(=O)N[C@@H](C)C(=O)NCc3cc(Cl)ccc3O)C2)c1 [compound 1254, (2R,4S)—N—((S)-1-((5-Chloro-2-hydroxybenzyl)amino)-1-oxopropan-2-yl)-4-(m-tolyl)pyrrolidine-2-carboxamide] | – | < 500 nM | – | – | MASP-2 vs. thrombin selectivity (MASP-2 (CCP1-CCP2-SP); [2]): *** (≥25 to <100-fold); Ki (human α-thrombin; Thrombin Ki (μM)): 10 to 25 µM

Row | Compound | MASP-2 vs. thrombin selectivity (MASP-2 (CCP1-CCP2-SP); [1]) | Ki (MASP-2 (CCP1-CCP2-SP); read-out: MASP-2 Ki) | Ki (human α-thrombin; read-out: Thrombin Ki) | Ki (MASP-2 (CCP1-CCP2-SP)) | other results
18 | COC(=O)NC(=N)c1ccc(CNC(=O)[C@H](C)NC(=O)[C@H]2C[C@H](c3ccccc3)CN2)cc1 [compound 1258, Methyl (imino(4-(((S)-2-((2R,4R)-4-phenylpyrrolidine-2-carboxamido)propanamido)methyl)phenyl)methyl)carbamate] | – | – | > 25 µM | 2500 to 10000 nM | –
19 | COc1cccc([C@H]2CN[C@@H](C(=O)N[C@@H](C)C(=O)NCc3ccc(C(=N)N)cc3)C2)c1 [compound 1262, (2R,4S)—N—((S)-1-((4-Carbamimidoylbenzyl)amino)-1-oxopropan-2-yl)-4-(3-methoxyphenyl)pyrrolidine-2-carboxamide] | – | < 500 nM | – | – | MASP-2 vs. thrombin selectivity (MASP-2 (CCP1-CCP2-SP); [2]): *** (≥25 to <100-fold); Ki (human α-thrombin; Thrombin Ki (μM)): 0.5 to 2.5 µM
20 | N=C(N)c1ccc(CNC(=O)[C@@H]2CCN2C(=O)[C@H](N)C2Cc3ccccc3C2)cc1 [compound 1058, (S)-1-((R)-2-Amino-2-(2,3-dihydro-1H-inden-2-yl)acetyl)-N-(4-carbamimidoylbenzyl)azetidine-2-carboxamide] | −− (less than 1.0-fold) | < 500 nM | < 0.5 µM | – | –
21 | Cc1ccc(-c2nc3cc(C(=N)N)ccc3[nH]2)nc1 [compound 2010, 2-(5-methylpyridin-2-yl)-1H-benzo[d]imidazole-5-carboximidamide dihydrochloride] | – | – | – | > 25000 nM | MASP-2 versus thrombin selectivity (MASP-2 (CCP1-CCP2-SP); +Zn): ++ (+Zn) (5.0 to 25-fold); Ki (MASP-2 (CCP1-CCP2-SP); +Zn, read-out: MASP-2 Ki): < 50 nM; Ki (human α-thrombin; +EDTA, read-out: Thrombin Ki): < 25 µM; Ki (human α-thrombin; +Zn, read-out: Thrombin Ki): < 2.5 µM
22 | COc1cc(C(=N)N)ccc1CNC(=O)[C@H](C)NC(=O)[C@H](N)CCc1ccccc1 [compound 1251, (R)-2-amino-N—((S)-1-((4-carbamimidoyl-2-methoxybenzyl)amino)-1-oxopropan-2-yl)-4-phenylbutanamide] | – | – | < 0.5 µM | 500 to 2500 nM | MASP-2 vs. thrombin selectivity (MASP-2 (CCP1-CCP2-SP); [2]): −− (<1.0-fold)
23 | C[C@H](NC(=O)[C@H](N)CCc1ccccc1Cl)C(=O)NCc1ccc(C(=N)N)cc1 [compound 1082] | * (1.0 to 5.0-fold) | < 500 nM | < 0.5 µM | – | –
24 | C[C@H](NC(=O)[C@@H](CCc1ccccc1)NCc1ccc(N2CCN(C)CC2)cc1)C(=O)NCc1ccc(C(=N)N)cc1 [compound 1152] | * (1.0 to 5.0-fold) | < 500 nM | < 0.5 µM | – | –
25 | Nc1ccc2[nH]c(Cc3nc4cc(N)ccc4[nH]3)nc2c1 [compound 2006] | – | – | – | > 25000 nM | MASP-2 versus thrombin selectivity (MASP-2 (CCP1-CCP2-SP); +Zn): + (+Zn) (1.0 to 5.0-fold); Ki (MASP-2 (CCP1-CCP2-SP); +Zn, read-out: MASP-2 Ki): < 10000 nM; Ki (human α-thrombin; +EDTA, read-out: Thrombin Ki): > 25 µM; Ki (human α-thrombin; +Zn, read-out: Thrombin Ki): > 25 µM
26 | C[C@H](NC(=O)[C@@H](CCc1ccccc1)NCC(=O)O)C(=O)NCc1ccc(C(=N)N)cc1 [compound 1110] | * (1.0 to 5.0-fold) | < 500 nM | < 0.5 µM | – | –
27 | N=C(N)c1ccc(CNC(=O)[C@@H]2CCN2C(=O)[C@H](N)CCc2ccccc2)cc1 [compound 1038] | * (1.0 to 5.0-fold) | < 500 nM | < 0.5 µM | – | –
28 | C[C@H](NC(=O)[C@@H](CCc1ccccc1)NCC(C)(C)C)C(=O)NCc1ccc(C(=N)N)cc1 [compound 1126] | −− (less than 1.0-fold) | < 500 nM | < 0.5 µM | – | –
29 | C[C@H](NC(=O)[C@H](N)CCc1ccccc1)C(=O)NCc1cc(Cl)ccc1OCC(=O)NCCCO [compound 1237, (R)-2-amino-N—((S)-1-((5-chloro-2-(2-((3-hydroxypropyl)amino)-2-oxoethoxy)benzyl)amino)-1-oxopropan-2-yl)-4-phenylbutanamide] | – | – | – | 10000 to 25000 nM | MASP-2 vs. thrombin selectivity (MASP-2 (CCP1-CCP2-SP); [2]): −− (<1.0-fold); Ki (human α-thrombin; Thrombin Ki (μM)): 0.5 to 2.5 µM
30 | C[C@H](NC(=O)[C@H](N)CCc1ccc(F)c(F)c1)C(=O)NCc1ccc(C(=N)N)cc1 [compound 1085] | ** (5.0 to 25-fold) | < 500 nM | < 0.5 µM | – | –
31 | N=C(N)c1ccc(CNC(=O)[C@@H]2CCN2C(=O)[C@H](O)C2CCCCC2)cc1 [compound 1020] | −− (less than 1.0-fold) | < 500 nM | < 0.5 µM | – | –
32 | N=C(N)c1ccc2[nH]c(-c3cc4ccccc4cn3)nc2c1 [compound 2014, 2-(isoquinolin-3-yl)-1H-benzo[d]imidazole-5-carboximidamide dihydrochloride] | – | – | – | > 25000 nM | MASP-2 versus thrombin selectivity (MASP-2 (CCP1-CCP2-SP); +Zn): +++ (+Zn) (25 to 100-fold); Ki (MASP-2 (CCP1-CCP2-SP); +Zn, read-out: MASP-2 Ki): < 500 nM; Ki (human α-thrombin; +EDTA, read-out: Thrombin Ki): < 25 µM; Ki (human α-thrombin; +Zn, read-out: Thrombin Ki): < 2.5 µM
33 | CCc1ccc(-c2nc3cc(C(=N)N)ccc3[nH]2)nc1 [compound 2007, 2-(5-ethylpyridin-2-yl)-1H-benzo[d]imidazole-5-carboximidamide dihydrochloride] | – | – | – | > 25000 nM | MASP-2 versus thrombin selectivity (MASP-2 (CCP1-CCP2-SP); +Zn): ++ (+Zn) (5.0 to 25-fold); Ki (MASP-2 (CCP1-CCP2-SP); +Zn, read-out: MASP-2 Ki): < 500 nM; Ki (human α-thrombin; +Zn, read-out: Thrombin Ki): < 2.5 µM; Ki (human α-thrombin; Thrombin Ki (μM), +EDTA): > 25 µM
34 | N=C(N)c1ccc2[nH]c(-c3ccc4ccccc4n3)nc2c1 [compound 2013, 2-(quinolin-2-yl)-1H-benzo[d]imidazole-5-carboximidamide dihydrochloride] | – | – | – | > 25000 nM | MASP-2 versus thrombin selectivity (MASP-2 (CCP1-CCP2-SP); +Zn): ++++ (+Zn) (>100-fold); Ki (MASP-2 (CCP1-CCP2-SP); +Zn, read-out: MASP-2 Ki): < 500 nM; Ki (human α-thrombin; +Zn, read-out: Thrombin Ki): < 10 µM; Ki (human α-thrombin; Thrombin Ki (μM), +EDTA): > 25 µM
